Results from US11352350B2, “IRAK degraders and uses thereof” (Kymera Therapeutics, Inc., priority 2018, dated 2022).
Where two headings read alike, the source gives them in different places.

Columns and labels:
IRAK4 = IRAK4 (Homo sapiens (Human), UniProt Q9NWZ3); test: IRAK4 MSD degradation in OCI-LY10; assay type: cell-based
Outline: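 OCI-LY10 cells treated with 8-point 1:3 dilutions (top 1 to 10 μM final) for 4 to 24 h at 37° C. Lysate IRAK4 measured by MSD sandwich immunoassay (2H9 capture, Y279 detection, SULFO-TAG anti-rabbit). DC50 from three-parameter logistic fit.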

OCI-LY10 = test: CTG Cell Viability Assay - OCI-LY10; assay type: cell-based, human; details: OCI-LY10, 4 days, read-out: CTG Cell Viability Assay - OCI-LY10: Average external-IC50
Outline: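 OCI-LY10 cells exposed to 9-dose, 1:3 dilutions from 10 μM top (0.2% DMSO) for 4 days at 37° C, 5% CO2. Viability by CellTiter-Glo luminescence; IC50 from three-parameter logistic fit.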

[1] = OCI-LY10, 4 hrs, read-out: IRAK4 MSD degradation in OCI-LY10 at 4 hrs: DC50
[2] = OCI-LY10, 24 hrs, read-out: IRAK4 MSD degradation in OCI-LY10 at 24 hrs: DC50
[3] = OCI-LY10, 4 hrs, MSD, read-out: IRAK4 MSD degradation in OCI-LY10 at 4 hrs: Average external-Abs DC50
[4] = OCI-LY10, 24 hrs, MSD, read-out: IRAK4 MSD degradation in OCI-LY10 at 24 hrs: Average external-Abs DC50

Sequence of IRAK4 (Q9NWZ3 whole entry): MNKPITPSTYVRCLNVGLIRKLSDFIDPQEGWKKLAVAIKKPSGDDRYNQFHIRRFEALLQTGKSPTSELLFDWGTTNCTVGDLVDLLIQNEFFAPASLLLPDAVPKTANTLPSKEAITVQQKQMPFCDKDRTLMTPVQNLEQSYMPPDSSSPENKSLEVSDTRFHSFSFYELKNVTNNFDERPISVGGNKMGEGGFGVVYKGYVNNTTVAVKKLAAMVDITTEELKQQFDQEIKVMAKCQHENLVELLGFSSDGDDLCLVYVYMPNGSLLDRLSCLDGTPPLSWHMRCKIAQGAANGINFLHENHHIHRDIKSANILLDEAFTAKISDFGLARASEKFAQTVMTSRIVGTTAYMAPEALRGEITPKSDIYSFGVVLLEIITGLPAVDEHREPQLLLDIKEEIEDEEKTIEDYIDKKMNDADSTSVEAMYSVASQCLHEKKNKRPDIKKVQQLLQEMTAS

| SMILES | DC50 (IRAK4; [1]) [nM] | DC50 (IRAK4; [2]) [nM] | IC50 (OCI-LY10; Homo sapiens, OCI-Ly10, 96 h) [nM] | DC50 (IRAK4; [3]) [nM] | DC50 (IRAK4; [4]) [nM] | IC50 (OCI-LY10) [nM] |
| --- | --- | --- | --- | --- | --- | --- |
| CN(CCCN1CCO[C@H](CNc2cccc3c2C(=O)N(C2CCC(=O)NC2=O)C3=O)C1)C[C@H]1CC[C@H](n2cc(NC(=O)c3cnn4ccc(N5C[C@H]6C[C@@H]5CO6)nc34)c(C(F)F)n2)CC1 (stereo partly drawn) [I-475] | 10 to 100 | < 10 | < 50 | – | – | – |
| CN(C[C@H]1CC[C@H](n2cc(NC(=O)c3coc(-c4ccnc(NCC5CC5)c4)n3)c(C(F)F)n2)CC1)C1CCN(Cc2cccc3c2n(C)c(=O)n3C2CCC(=O)NC2=O)CC1 (stereo partly drawn) [I-400] | – | – | < 50 | < 10 | – | – |
| Cn1c(=O)n(C2CCC(=O)NC2=O)c2ccc(CCCOCCOCC(F)CNC(=O)c3cnc(Nc4ccc5cnccc5n4)cc3NC3CC3)cc21 (stereo not drawn) [I-138] | – | – | > 1000 | > 1000 | > 1000 | – |
| O=C1CCC(n2c(=O)oc3cc(CCCOC4CCN(C[C@H]5CC[C@H](n6cc(NC(=O)c7cnn8ccc(N9CCNCC9)nc78)c(C(F)F)n6)CC5)CC4)ccc32)C(=O)N1 (stereo partly drawn) [I-166] | – | – | > 1000 | 10 to 100 | – | – |
| CN(CCCOCCCN)C[C@H]1CC[C@H](n2cc(NC(=O)c3cnn4ccc(N5CCOCC5)nc34)c(C(F)F)n2)CC1 [I-315, N-[1-[4-[[3-(3-aminopropoxy)propyl-methyl-amino]methyl]cyclohexyl]-3-(difluoromethyl)pyrazol-4-yl]-5-morpholino-pyrazolo[1,5-a] pyrimidine-3-carboxamide] | – | – | > 1000 | > 1000 | > 1000 | – |
| CN1C(=O)C(C2CCC(=O)NC2=O)c2cccc(CCCOC3CCN(C[C@H]4CC[C@H](n5cc(NC(=O)c6cnn7ccc(NCCC(C)(C)O)nc67)c(C(F)F)n5)CC4)CC3)c21 (stereo partly drawn) [I-288] | – | – | > 1000 | < 10 | – | – |
| Cn1c(=O)n(C2CCC(=O)NC2=O)c2cccc(CN3CCC(CCN4CCC(n5cc(NC(=O)c6cnn7ccc(N8CCOCC8)nc67)c(C(F)F)n5)CC4)CC3)c21 (stereo not drawn) [I-177] | – | – | 100 to 500 | < 10 | – | – |
| CN(CCCNc1cccc2c1C(=O)N(C1CCC(=O)NC1=O)C2=O)C1CCN(C[C@H]2CC[C@H](n3cc(NC(=O)c4cnn5ccc(N6CCOCC6)nc45)c(C(F)F)n3)CC2)CC1 (stereo partly drawn) [I-231] | – | – | < 50 | 10 to 100 | – | – |
| CN(CCC1CCN(C(=O)c2ccc(CNCc3ccc(-c4ccc5c(cnn5CC5CC5)c4)cc3)cc2)CC1)C[C@H]1CC[C@H](n2cc(NC(=O)c3coc(-c4ccnc(NCC5CC5)c4)n3)c(C(F)F)n2)CC1 [I-134] | – | – | > 1000 | > 1000 | > 1000 | – |
| CN(CCOCCNCc1cccc2c1n(C)c(=O)n2C1CCC(=O)NC1=O)C[C@H]1CC[C@H](n2cc(NC(=O)c3coc(-c4ccnc(NCC5CC5)c4)n3)c(C(F)F)n2)CC1 (stereo partly drawn) [I-237] | – | – | > 1000 | < 10 | – | – |
| CN(C[C@H]1CC[C@H](n2cc(NC(=O)c3cnn4ccc(N5C[C@H]6C[C@@H]5CO6)nc34)c(C(F)F)n2)CC1)C1CCC(CNc2cccc3c2C(=O)N(C2CCC(=O)NC2=O)C3=O)CC1 (stereo partly drawn) [I-324] | – | – | < 50 | 100 to 1000 | – | – |
| CN(C[C@H]1CC[C@H](n2cc(NC(=O)c3cnn4ccc(N5C[C@H]6C[C@@H]5CO6)nc34)c(C(F)F)n2)CC1)[C@H]1CC[C@H](Nc2cccc3c2C(=O)N(C2CCC(=O)NC2=O)C3=O)CC1 (stereo partly drawn) [I-463] | 10 to 100 | < 10 | 100 to 500 | – | – | – |
| O=C1CCC(N2C(=O)c3cccc(NCCCCC[C@@H]4CN(C[C@H]5CC[C@H](n6cc(NC(=O)c7cnn8ccc(N9C[C@H]%10C[C@@H]9CO%10)nc78)c(C(F)F)n6)CC5)CCO4)c3C2=O)C(=O)N1 (stereo partly drawn) [I-460] | 100 to 1000 | 10 to 100 | 50 to 100 | – | – | – |
| O=C1CCC(N2C(=O)c3cccc(NCCCOC4CCN(C[C@H]5CC[C@H](n6cc(NC(=O)c7cnn8ccc(N9CC%10(COC%10)C9)nc78)c(C(F)F)n6)CC5)CC4)c3C2=O)C(=O)N1 (stereo partly drawn) [I-364] | – | – | 50 to 100 | – | 10 to 100 | – |
| CN(C[C@H]1CC[C@H](n2cc(NC(=O)c3cnn4ccc(N[C@@H]5CCCC[C@@H]5O)nc34)c(C(F)F)n2)CC1)C1CCN(Cc2cccc3c2n(C)c(=O)n3C2CCC(=O)NC2=O)CC1 (stereo partly drawn) [I-279] | – | – | > 1000 | < 10 | – | – |
| CN(CCCOCCc1ccc2c(c1)n(C)c(=O)n2C1CCC(=O)NC1=O)C[C@H]1CC[C@H](n2cc(NC(=O)c3coc(-c4ccnc(NCC5CC5)c4)n3)c(C(F)F)n2)CC1 (stereo partly drawn) [I-129] | – | – | > 1000 | < 10 | – | – |
| Cn1c(=O)n(C2CCC(=O)NC2=O)c2cccc(CN3CCC(CN4CCC(n5cc(NC(=O)c6cnn7ccc(N[C@@H]8CCCC[C@@H]8O)nc67)c(C(F)F)n5)CC4)CC3)c21 (stereo partly drawn) [I-150] | – | – | < 50 | 10 to 100 | – | – |

| SMILES | DC50 (IRAK4; [1]) [nM] | DC50 (IRAK4; [2]) [nM] | IC50 (OCI-LY10; Homo sapiens, OCI-Ly10, 96 h) [nM] | DC50 (IRAK4; [3]) [nM] | DC50 (IRAK4; [4]) [nM] | IC50 (OCI-LY10) [nM] |
| --- | --- | --- | --- | --- | --- | --- |
| O=C1CCC(N2C(=O)c3cccc(NCC4CC5(C4)CN(C[C@H]4CC[C@H](n6cc(NC(=O)c7cnn8ccc(N9C[C@H]%10C[C@@H]9CO%10)nc78)c(C(F)F)n6)CC4)C5)c3C2=O)C(=O)N1 (stereo partly drawn) [I-461] | 100 to 1000 | – | < 50 | – | – | – |
| O=C1CCC(N2Cc3c(NCCCOC4CCN(C[C@H]5CC[C@H](n6cc(NC(=O)c7cnn8ccc(N9CCOCC9)nc78)c(C(F)F)n6)CC5)CC4)cccc3C2=O)C(=O)N1 (stereo partly drawn) [I-330] | – | – | > 1000 | – | < 10 | – |
| CN1C(=O)C(C2CCC(=O)NC2=O)c2ccc(CN3CCC(N(C)C[C@H]4CC[C@H](n5cc(NC(=O)c6coc(-c7ccnc(NCC8CC8)c7)n6)c(C(F)F)n5)CC4)CC3)cc21 (stereo partly drawn) [I-239] | – | – | – | 10 to 100 | – | > 1000 |
| CC[C@H]1C(COc2ncc(C#C[C@H]3CC[C@H](CN4CCC(OCCCc5cccc6c5c5cccnc5n6C5CCC(=O)NC5=O)CC4)CC3)c3cc(C(N)=O)c(OC)cc23)NC(=O)[C@H]1F (stereo partly drawn) [I-205] | – | – | > 1000 | 100 to 1000 | 10 to 100 | – |
| CC[C@H]1C(COc2ncc(C#C[C@H]3CC[C@H](CN(C)Cc4ccc(CCNc5cccc6c5C(=O)N(C5CCC(=O)NC5=O)C6=O)cc4)CC3)c3cc(C(N)=O)c(OC)cc23)NC(=O)[C@H]1F (stereo partly drawn) [I-329] | – | – | > 1000 | 100 to 1000 | – | – |
| O=C1CCC(N2C(=O)c3cccc(NCCOC[C@H]4CC[C@H](n5cc(NC(=O)c6cnn7ccc(N8C[C@H]9C[C@@H]8CO9)nc67)c(C(F)F)n5)CC4)c3C2=O)C(=O)N1 (stereo partly drawn) [I-369] | – | – | 100 to 500 | > 1000 | > 1000 | – |
| CN(CCCN(C)C[C@H]1CC[C@H](n2cc(NC(=O)c3coc(-c4ccnc(NCC5CC5)c4)n3)c(C(F)F)n2)CC1)Cc1cccc2c1n(C)c(=O)n2C1CCC(=O)NC1=O (stereo partly drawn) [I-242] | – | – | 500 to 1000 | < 10 | – | – |
| CN(C[C@H]1CC[C@H](C2N=C(NC(=O)c3cnn4ccc(N5CCOCC5)nc34)C(C(F)F)=N2)CC1)C1CCC(CNc2cccc3c2C(=O)N(C2CCC(=O)NC2=O)C3=O)CC1 (stereo partly drawn) [I-459] | 100 to 1000 | 10 to 100 | < 50 | – | – | – |
| CN(CCOCCOCCOC12CC3CC(CC(C3)C1)C2)C[C@H]1CC[C@H](n2cc(NC(=O)c3coc(-c4ccnc(NCC5CC5)c4)n3)c(C(F)F)n2)CC1 [I-174] | – | – | > 1000 | > 1000 | > 1000 | – |
| CC([C@H]1CC[C@H](n2cc(NC(=O)c3coc(-c4ccnc(NCC5CC5)c4)n3)c(C(F)F)n2)CC1)N1CCC(OCCCc2cccc3c2n(C)c(=O)n3C2CCC(=O)NC2=O)CC1 (stereo partly drawn) [I-301, 2-[2-(Cyclopropylmethylamino)-4-pyridyl]-N-[3-(difluoromethyl)-1-[4-[1-[4-[3-[1-(2,6-dioxo-3-piperidyl)-3-methyl-2-oxo-benzimidazol-4-yl]propoxy]-1-piperidyl]ethyl]cyclohexyl]pyrazol-4-yl] oxazole-4-carboxamide] | – | – | < 50 | 10 to 100 | – | – |
| CN(C(=O)c1coc(-c2ccnc(NCC3CC3)c2)n1)c1cn([C@H]2CC[C@H](CN(C)C3CCN(Cc4cccc5c4n(C)c(=O)n5C4CCC(=O)NC4=O)CC3)CC2)nc1C(F)F (stereo partly drawn) [I-395] | – | – | > 1000 | 100 to 1000 | – | – |
| CC(C)[C@@H](CS(=O)(=O)C(C)C)N1C(=O)[C@@](C)(CC(=O)N2CCC(CCN(C)C[C@H]3CC[C@H](n4cc(NC(=O)c5coc(-c6ccnc(NCC7CC7)c6)n5)c(C(F)F)n4)CC3)CC2)C[C@H](c2cccc(Cl)c2)[C@H]1c1ccc(Cl)cc1 [I-147] | – | – | > 1000 | > 1000 | > 1000 | – |
| CN(C[C@H]1CC[C@H](n2cc(NC(=O)c3cnn4ccc(N5CCOCC5)nc34)c(C(F)F)n2)CC1)C1CCN(CCc2cccc3c2n(C)c(=O)n3C2CCC(=O)NC2=O)CC1 (stereo partly drawn) [I-404] | – | – | < 50 | < 10 | – | – |
| Cn1c(=O)n(C2CCC(=O)NC2=O)c2ccc(CCCCCCC(=O)N3CCN([C@H]4CC[C@H](Nc5ncnc6[nH]cc(C7CCOCC7)c56)CC4)CC3)cc21 (stereo partly drawn) [I-22] | – | – | 100 to 500 | > 1000 | > 1000 | – |
| Cn1c(=O)n(C2CCC(=O)NC2=O)c2ccc(CN3CCC(CCN4CCC(n5cc(NC(=O)c6coc(-c7ccnc(NCC8CC8)c7)n6)c(C(F)F)n5)CC4)CC3)cc21 (stereo not drawn) [I-181] | – | – | 100 to 500 | 100 to 1000 | – | – |
| Cn1c(=O)n(C2CCC(=O)NC2=O)c2cccc(CCCOCCOCCNC(=O)[C@H]3CC[C@@H](n4cc(NC(=O)c5coc(-c6ccnc(NCC7CC7)c6)n5)c(C(F)F)n4)CC3)c21 (stereo partly drawn) [I-15] | – | – | > 1000 | 10 to 100 | 10 to 100 | – |
| Cn1c(=O)n(C2CCC(=O)NC2=O)c2cccc(-c3cccc(CCCOCc4ccc(-n5cc(NC(=O)c6cnn7ccc(N8CCOCC8)nc67)c(C(F)F)n5)cc4)c3)c21 (stereo not drawn) [I-409] | – | – | > 1000 | > 1000 | – | – |
